These are literature values, as cited in patent publication US20120058151A1, “NANOPARTICULATE COMPOSITIONS OF POORLY SOLUBLE COMPOUNDS” (CAPSULUTION PHARMA AG, priority 2008, published 2012).

As to `CCOc1nc2cccc(C(=O)OC(C)OC(=O)OC3CCCCC3)c2n1Cc1ccc(-c2ccccc2-c2nnn[nH]2)cc1` (stereo not shown) [candesartan cilexetil], the solubility in water result is “practically insoluble in water”.
